Measurements: article PMC10552892, “Ebselen oxide and derivatives are new allosteric HER2 inhibitors for HER2‐positive cancers” (Molecular Oncology, 2023)
Read-outs that look alike come from different tables or passages of the source.

How the values were obtained:
[1] = tested on: MDA-MB-231; experiment: Soft agar anchorage-independent growth, MDA-MB-231; format: cell-based, human; conditions: 10 μM
Experimental: A bottom layer of 0.8% agarose in DMEM supplemented with 20% FBS and penicillin/streptomycin was added to 24‐well plates before seeding 25.10^3 cells per well in a 0.6% agarose top layer. Cells were treated with a vehicle or with 10 μM ebselen oxide or derivatives. Treatments were renewed 3 times a week. After 6 weeks, colonies were visualized with a phase‐contrast microscope and their number and size were quantified using IMAGEJ software.
Fig. 2 Ebselen oxide inhibits HER2 activation, cell proliferation, and anchorage‐independent growth of HER2^+ breast cancer cells. […] Blot and quantification of a representative experiment are shown out of 4 (A), 5 (B), or 2 (C) independent experiments. (D–F) Proliferation curves of HER2‐positive (SKBR3, D or BT474, E) or HER2‐negative (MDA‐MB‐231, F) breast cancer cell lines treated with vehicle or 10 μM ebselen oxide assessed by MTT assay. […] (G–I) Anchorage‐independent growth of SKBR3 (G), BT474 (H), or MDA‐MB‐231 (I) cells treated with vehicle or 10 μM ebselen oxide. […] Scale bars are […].

[2] = tested on: gD-HER2-EBM*; experiment: Western blot of HBMECs overexpressing ERM-binding-motif mutant gD-HER2-EBM*; conditions: 5 μM, 24 h, HBMEC
Experimental: (§1) Cells were washed with cold PBS and lysed in a buffer containing 1% Triton, 50 mM Tris–HCl pH 8.8, 25 mM NaCl, 1 mM EDTA, 1 mM Na3VO4, 1 mM AEBSF, 10 μg·mL^−1 each of aprotinin/leupeptin/pepstatin or lysed in Laemmli buffer. Proteins were separated by SDS/PAGE and transferred to nitrocellulose (Schleicher & Schuell, Keene, NH, USA). Membranes were blocked for 1 h in TBS/0.1% Tween20/3% BSA and probed overnight with indicated antibodies. Peroxidase‐coupled secondary antibodies were used to reveal antibody binding using the ECL substrate (Pierce, Thermo Fisher Scientific, Waltham, MA, USA) and Fusion FX (Vilber Lourmat, Collégien, France) chemoluminescence acquisition system. Quantifications were done with IMAGEJ software (1.53e) (NIH, USA).
(G, H) Lysates from HBMECs transfected with vectors encoding gD‐tagged wild‐type HER2 (gD‐HER2‐WT) (G) or the mutant generated with alanine and glycine substitutions within the ERM‐binding motif (gD‐HER2‐EBM*) (H) and treated or not during 24 h with 5 μM ebselen oxide were analyzed by western blot using antibodies against activated HER2 (pY1248), HER2, activated ERK (pERK), and ERK. Representative blots and quantification of data are shown where data are mean ± sem [n = 3 (G); n = 2 (H)].

[3] = biological target: p95HER2 (Homo sapiens, UniProt P04626); experiment: Activation of gD-tagged p95HER2 in HBMECs, western blot; conditions: 5–10 μM, 24 h
Experimental: as §1
Vector encoding wild‐type glycoprotein D‐tagged form of HER2 (gD‐HER2‐WT) [18] was a kind gift of Dr M. Sliwkowski (Genentech, San Francisco, CA, USA). […] Vector encoding the HER2p95 [19] was provided by Dr J. Baselga.
(A–C) Lysates were then analyzed by western blot using antibodies against pY1248 HER2 and HER2. Representative blot and data quantification (mean ± SEM) are shown out of 3 (A), 3 (B), or 4 (C) independent experiments. One‐way ANOVA followed by Dunnett's multiple comparison test, *P < 0.05, **P < 0.01, ***P < 0.001.

[4] = tested on: NCI-N87; experiment: Anchorage-independent growth (spheroid assay, ULA plates), NCI-N87; format: cell-based, human; conditions: ebselen oxide 10 μM, lapatinib 10 nM, trastuzumab 10 μg·mL−1, alone or combined
Experimental: 5.10^3 cells/24‐well were seeded in a complete medium in ULA plates (Corning® Costar® (Corning, NY, USA) C LS3473‐24EA) in the presence of indicated compounds. Spheroids were imaged 6–8 days later with a phase‐contrast microscope, and their areas were measured using IMAGEJ software.
Proliferation was assessed overtime by Incucyte during 4 days. Data are mean ± SD (n = 8–12) of a representative experiment out of 4 (A), 3 (B), or 2 (C) independent experiments. One‐way ANOVA followed by Sidak multiple comparison test, (*, compared with Vehicle; ° and #, respectively, compared with lapatinib 10 and 1000 nM) ***P < 0.001, ****P < 0.0001. […] Proliferation was assessed by Incucyte during 4 days. Data are mean ± SD (n = 8–12) of a representative experiment out of two independent experiments. […] Images of a representative experiment out of 3 (G) or 4 (H) independent experiments and quantification of the colony total area are shown where data are mean ± SEM. One‐way ANOVA followed by multiple comparison test, *P < 0.05, **P < 0.01. Scale bars are 100 μM.

[5] = biological target: T1, HER2 (pY1248) in SKBR3 (Homo sapiens, UniProt P04626); experiment: HER2 activation (pY1248-HER2) in SKBR3 cells, western/dot blot; format: cell-based; parameters: Inhibition of HER2 activation / HER2 inhibition, %: concentration or dose not given beside the values
T1 construct: host or cells: SKBR3

[6] = tested on: BT474 cells implanted in the mammary fat pad; experiment: Tumor growth in orthotopic BT474 xenograft in immunodeficient mice; format: in vivo; conditions: for Tumor size increase between day 19 and day 40: 5 days a week, vehicle 172%
Excerpt: Experiments were done as already described on the TrGET platform of centre de Recherche de Cancérologie de Marseille (Institut Paoli Calmettes, Marseille, France) in accordance with the guidelines of the Institut National de la Santé et de la Recherche Médicale. The study was approved by the Animal Experimentation Ethics Committee of Marseille (APAFIS#2079‐2015092811101360 v3). Briefly, 7‐to‐8‐week‐old female NOD.Cg‐Prkdc scid/J (NSG) mice were purchased from Charles River France or bred in‐house and maintained on a 12‐h light and 12‐h dark cycle, under specific pathogen‐free conditions with sterilized food and water provided ad libitum. The initial body weight of the animals at the time of arrival was between 19 and 24 g. Mice were allowed to acclimatize to local conditions for 1 week before being injected with tumor cells. 5 × 10^6 BT474 cells resuspended in 100 μL (50% matrigel and 50% PBS) were implanted orthotopically in the mammary fat pad of NSG mice anesthetized with ketamine and xylazine and administered with the nonsteroidal anti‐inflammatory drug metacam (SC, 1 mg·kg^−1). Estradiol pellets were implanted subcutaneously. Metacam was administered 24 and 48 h postimplantation. Nineteen days after implantation, mice were randomized into […] to be administered intraperitoneally during 3 weeks with vehicle (10% DMSO in PBS, twice a day, 5 days a week, n = 8), 3 mg·kg^−1 ebselen oxide (twice a day, 5 days a week, n = 8), or […] ebselen oxide (twice a day, 5 days a week, n = 8). Mice weight and tumor volume were assessed 2–3 times a week using a caliper. At the end of the experiment, the collected tumors were photographed, weighed, and cut into halves to be embedded in OCT for immunohistofluorescence analysis or frozen in liquid nitrogen for western blot analysis.
The collected tumors embedded in OCT were cut into 5 μm thick sections and immobilized on superfrost™ plus microscope slides. Sections were fixed in 4% paraformaldehyde for 10 min at room temperature, washed three times in PBS, permeabilized for 10 min in PBS containing 0.1% Triton X100, washed with PBS, blocked for 30 min in PBS containing 3% BSA and incubated 1 h at room temperature with primary antibodies [Monoclonal anti‐HER2 (clone Cle2‐4001 and 3B5, IF‐1 : 100) or polyclonal anti‐KI67 (ref PA5‐16785, IF‐1 : 200)]. Sections were again washed three times in PBS and incubated 1 h at room temperature with fluorescence‐conjugated secondary antibodies from Jackson Immunoresearch Laboratories. After mounting, samples were scanned using a Lamina multilabel slide scanner (PerkinElmer). The proliferative index (mean percentage of Ki67‐positive nuclei) was quantified on 10 regions (area 0.2 mm^2) per slide (vehicle, n = 7; ebselen oxide n = 5) using IMAGEJ software.
We then explored the potential of ebselen oxide to reduce the growth of HER2‐overexpressing tumors in vivo. Nineteen days after orthotopic implantation of BT474 cells in the mammary fat pad of immunodeficient […] mice, mice received 3 or 5 mg·kg^−1 ebselen oxide, intraperitoneally (once or twice a day, as indicated, 5 days a week) or vehicle as a control. […] Conversely, in animals treated with 5 mg·kg^−1 ebselen oxide, it increased only by 44% in mice treated with 5 mg·kg^−1 ebselen oxide, corresponding to a significant growth inhibition index of 75% at day 40 (Fig. 5C–E). […] Of note, there was an excellent correlation between tumor volume and tumor weight (R ^2 = 0.9611, Fig. 5H). […] We next analyzed biochemically the intratumoral level of activated HER2 and downstream signaling in vehicle‐ and 5 mg·kg^−1 ebselen oxide‐treated mice.

[7] = tested on: HBMECs overexpressing V842I HER2; experiment: Proliferation of HBMECs overexpressing V842I HER2 (Incucyte, MTT)
Experimental: Cell medium was removed and replaced with fresh culture medium. 3‐(4,5‐dimethylthiazol‐2‐yl)‐2,5‐diphenyltetrazolium bromide (MTT reagent) was added at a final concentration of 1.2 mM for 2–4 h at 37 °C. Produced formazan was solubilized with DMSO and measured by 540 nm absorbance reading.
25.10^3 cells/96‐well transfected HBMECs or 9.10^3 cancer cells were seeded and monitored with an Incucyte S3 imaging system (Sartorius, Goettingen, Germany) using 10× objective every 2 h during 5 days. Confluency analyses were performed using the dedicated Incucyte analysis system.
(D–F) Proliferation was assessed by Incucyte during 5 days. Data are mean ± SEM of a representative experiment out of two independent experiments. Two‐way ANOVA followed by Bonferroni's multiple comparison test, ***P < 0.001, ****P < 0.0001.
(A-B) HBMECs transfected with empty vector (pRK5) or vectors encoding gD-HER2 WT, the truncated gD-
Proliferation was assessed by Incucyte during 5 days.
Representative quantification of the proliferation (B) is shown where data are mean ± sem (n=8-12).
ANOVA followed byBonferroni’s multiple comparison test, *** P<0.001, **** P<0.0001.
vehicle, 5-10 µM Ebselen oxide or 5 µM AG1478. Proliferation was assessed by MTT assay during 3 days.
Data are mean ± sem (n=3). Two-way ANOVA followed by Bonferroni’s multiple comparison test, * P<0.05 **

[8] = biological target: T2, HER2 in heterodimers with EGFR/HER1 (Homo sapiens, UniProt P04626); experiment: Ligand-dependent HER2 activation in HBMECs upon EGF stimulation (western blot); format: cell-based; conditions: 10 μM, 50 ng/ml EGF 5 min
T2 construct: in noncancer cells expressing normal levels of HER2; endogenous in cells; host or cells: HBMEC
T2 sequence (P04626 23-1255, one chain of several): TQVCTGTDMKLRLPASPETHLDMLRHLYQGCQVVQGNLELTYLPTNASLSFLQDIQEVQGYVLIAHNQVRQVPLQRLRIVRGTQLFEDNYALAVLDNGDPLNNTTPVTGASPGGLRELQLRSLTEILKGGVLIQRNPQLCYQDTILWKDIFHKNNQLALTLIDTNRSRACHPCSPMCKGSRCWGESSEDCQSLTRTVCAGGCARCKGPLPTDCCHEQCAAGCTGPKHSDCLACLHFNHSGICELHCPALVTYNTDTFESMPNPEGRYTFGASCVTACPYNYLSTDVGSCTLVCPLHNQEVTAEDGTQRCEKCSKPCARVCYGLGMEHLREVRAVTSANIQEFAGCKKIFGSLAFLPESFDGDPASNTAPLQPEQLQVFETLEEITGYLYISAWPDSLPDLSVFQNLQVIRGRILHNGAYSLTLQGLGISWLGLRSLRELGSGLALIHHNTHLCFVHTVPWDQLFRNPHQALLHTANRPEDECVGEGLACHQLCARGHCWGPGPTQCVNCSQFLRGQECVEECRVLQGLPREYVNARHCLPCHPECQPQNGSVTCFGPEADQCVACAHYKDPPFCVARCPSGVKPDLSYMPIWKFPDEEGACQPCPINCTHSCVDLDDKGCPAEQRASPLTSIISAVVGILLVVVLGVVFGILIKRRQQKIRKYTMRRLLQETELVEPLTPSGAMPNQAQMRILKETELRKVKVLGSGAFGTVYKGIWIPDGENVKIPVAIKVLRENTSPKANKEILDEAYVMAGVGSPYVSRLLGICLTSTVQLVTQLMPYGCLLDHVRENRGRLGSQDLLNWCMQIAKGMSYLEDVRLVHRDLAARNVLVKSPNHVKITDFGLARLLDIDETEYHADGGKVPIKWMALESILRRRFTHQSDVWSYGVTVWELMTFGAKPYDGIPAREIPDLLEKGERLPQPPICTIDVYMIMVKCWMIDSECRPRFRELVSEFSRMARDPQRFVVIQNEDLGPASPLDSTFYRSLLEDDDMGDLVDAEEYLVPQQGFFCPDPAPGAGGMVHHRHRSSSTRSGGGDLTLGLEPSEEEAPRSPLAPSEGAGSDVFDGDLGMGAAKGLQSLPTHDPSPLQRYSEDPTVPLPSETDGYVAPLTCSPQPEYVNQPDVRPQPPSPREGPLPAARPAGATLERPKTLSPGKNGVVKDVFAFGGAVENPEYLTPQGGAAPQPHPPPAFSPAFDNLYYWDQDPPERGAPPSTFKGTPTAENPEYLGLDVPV

T1 sequence (P04626 23-1255): as the sequence (P04626 23-1255, one chain of several) above
Chain of p95HER2 (P04626 611-1255 limits assumed): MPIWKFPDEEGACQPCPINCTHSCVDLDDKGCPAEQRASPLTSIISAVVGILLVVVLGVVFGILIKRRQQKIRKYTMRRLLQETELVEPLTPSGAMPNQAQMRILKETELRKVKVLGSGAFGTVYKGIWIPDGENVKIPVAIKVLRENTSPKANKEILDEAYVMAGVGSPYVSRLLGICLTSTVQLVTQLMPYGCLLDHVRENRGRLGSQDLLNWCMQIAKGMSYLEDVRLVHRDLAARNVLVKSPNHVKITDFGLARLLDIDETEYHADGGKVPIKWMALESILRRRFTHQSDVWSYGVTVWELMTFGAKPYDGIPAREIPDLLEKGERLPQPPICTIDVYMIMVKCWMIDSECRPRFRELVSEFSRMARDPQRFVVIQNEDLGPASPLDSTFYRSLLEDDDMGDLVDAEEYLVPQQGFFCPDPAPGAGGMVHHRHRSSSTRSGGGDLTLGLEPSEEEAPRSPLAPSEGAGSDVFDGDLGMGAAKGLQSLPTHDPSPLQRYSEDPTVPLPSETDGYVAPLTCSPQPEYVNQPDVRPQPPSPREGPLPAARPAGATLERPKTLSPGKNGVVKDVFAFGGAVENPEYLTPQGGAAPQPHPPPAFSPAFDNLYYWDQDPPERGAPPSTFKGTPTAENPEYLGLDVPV

## O=C1c2ccccc2[Se](=O)N1c1ccccc1 (centres unmarked) [Ebselen oxide, ebselen oxide]
[1]
  Effect on development of micro-colonies: no impact
[2]
  Downstream activation of ERK induced by gD-HER2-EBM* overexpression: did not reduce
  Phosphorylation of gD-HER2-EBM*: did not reduce
[3]
  Inhibition of p95HER2 activation: strongly inhibited
[4]
  Reduction of anchorage-independent growth (spheroid assay): 23%
[5]; SKBR3, 24 h
  Inhibition of HER2 activation: 66%
[5]; SKBR3, 24 h, read-out: EC50 (inhibition of HER2)
  EC50: 23.9 µM
[5]; SKBR3, 48 h
  Inhibition of HER2 activation: 64%
[5]; SKBR3, ebselen oxide 10 μM, lapatinib 10 nM
  Effect on HER2 activation, single agents and combination: partially decreased
[5]; Table 1, HER2+ breast cancer cells (ebselen oxide value equals SKBR3 48 h)
  HER2 inhibition, %: 64.2%
[5]; Table 1, HER2+ breast cancer cells (ebselen oxide value equals SKBR3 48 h), read-out: EC50, μM (HER2 inhibition)
  EC50: 26.9 µM
[6]; 3 mg·kg−1 i.p.
  Tumor size increase between day 19 and day 40: 112%
[6]; 3 mg·kg−1 i.p., day 40
  Reduction in tumor size and weight compared to vehicle: only a little reduction
[6]; 5 mg·kg−1, immunofluorescence on tumor sections
  Drop of tumor proliferation index (Ki67) vs vehicle: 32%
[6]; 5 mg·kg−1, western blot
  Decrease of HER2 activation in tumor lysates vs vehicle: 30%
  Inhibition of Akt activation in tumor lysates: 50%
  Inhibition of ERK activation in tumor lysates: 45%
[6]; 5 mg·kg−1 i.p.
  Tumor size increase between day 19 and day 40: 44%
[6]; 5 mg·kg−1 i.p., day 40
  Growth inhibition index: 75%
[6]; 5 mg·kg−1 i.p., tumors collected at day 40
  Drop in tumor weight compared to vehicle-treated group: 40%
[6]; 3 and 5 mg·kg−1, recovered after reduction from two to one injection per day
  Mice body weight after day 30: decrease of mice body weight
[6]; 3 and 5 mg·kg−1 i.p. twice a day
  Tolerability (mice body weight): well‐tolerated until day 30
[6]; mouse model, ebselen oxide administration
  Decrease in the mammary tumor volume (discussion): 40%
[7]; 5 μM, Incucyte 5 days
  Inhibition of cell proliferation induced by overexpression of V842I HER2: almost totally inhibited
[7]; MTT 3 days, V842I
  Inhibition of proliferation compared with AG1478 (5 μM): similar
[8]
  Physiological activation of HER2 in heterodimers and downstream AKT and ERK activation upon EGF: did not alter
